pIC50: −log10 of the molar value.

One assay has as its target T1, K103NNY181C mutant reverse transcriptase (Human immunodeficiency virus type 1 group M subtype B, UniProt P04585, K690N/Y768C).
T1 construct: mutations that occur in the reverse transcriptase segment of the pol gene
Briefly: Reverse transcriptase enzymatic assay (PicoGreen), K103N/Y181C mutant RT. The class given is biochemical, HIV-1. To be noted: IC50 mut (nM), mutant (K103N/Y181C) reverse transcriptase, enzymatic assay of Example 24. A digest of the protocol: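 HIV-1 RT (2.5 nM final) pre-incubated 15 min at room temperature with inhibitor, then reacted 50 min at 37 °C with poly rC 45 nM, dG15 4.5 nM, dGTP 3.6 μM in Tris/HCl pH 7.8, 1% DMSO. Final inhibitor 10 μM to 0.508 nM; EDTA-quenched, PicoGreen fluorescence read at 485/520 nm.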
`COc1ccc(CC(=O)Nc2ccc(NC(=O)CSc3nnnn3-c3ccc(C(C)(C)C)cc3Cl)c(Cl)c2)cc1` [Compound 7015] gave an IC50 of 189 nM.
Molecule `COc1cccc(CC(=O)Nc2ccc(NC(=O)CSc3nnnn3-c3ccc(C(C)(C)C)cc3Cl)c(Cl)c2)c1` [Compound 7016] yielded a 50% inhibitory concentration (IC50) of 145 nM.
For `CC(C)(C)c1ccc(-n2nnnc2SCC(=O)Nc2ccc(NC(=O)C3CCCC3)cc2Cl)c(Cl)c1` [Compound 7021], inhibition was half-maximal at 262 nM (IC50).

Still in this assay, the particulars now being: IC50 mut, K103N/Y181C mutant reverse transcriptase, enzymatic assay of Example 24.
The molecule `CC(C)(O)C#Cc1ccc(NC(=O)CSc2nnnn2-c2cc(C(C)(C)C)ccc2Cl)c(Cl)c1` [Compound 4199] had a pIC50 of 7.49.
`O=C(CSc1nnnn1-c1ccc(C2CC2)cc1Cl)Nc1ccc(C#CC2(CN3CCCC3)CC2)cc1Cl` [Compound 4092] had a pIC50 of 7.21.
Still for that read-out and setting: in the case of `CC(C)c1ccc(-n2nnnc2SCC(=O)Nc2ccc(C#CC(C)(C)C(=O)O)cc2Cl)c(Br)c1` [Compound 4099] it was 7.37.
Still for that read-out and setting: to `CC(C)(C#Cc1ccc(NC(=O)CSc2nnnn2-c2ccc(C3CC3)cc2Cl)c(Cl)c1)C(=O)N1CCC(C(=O)O)CC1` [Compound 4149] belongs 7.78.
Still for that read-out and setting: to `CN(C)C(=O)COC(C)(C)C#Cc1ccc(NC(=O)CSc2nnnn2-c2ccc(C(C)(C)C)cc2Cl)c(Cl)c1` [Compound 4049] belongs 7.52; to `O=C(CSc1nnnn1-c1ccc(C2CC2)cc1Cl)Nc1ccc(C#CCCN2CCC(O)CC2)cc1Cl` [Compound 4134], 7.55; to `CC(C)(C#Cc1ccc(NC(=O)CSc2nnnn2-c2cc(C(C)(C)C)ccc2Cl)c(Cl)c1)NC(=O)CN1CCC(C(=O)O)CC1` [Compound 4204], 7.46.
`CC(C)(C#Cc1ccc(NC(=O)CSc2nnnn2-c2ccc(C(C)(C)C)cc2Cl)c(Cl)c1)OCC(=O)NCCO` [Compound 4048] showed a pIC50 of 7.59.
Still for that read-out and setting: to `CC(C)(C#Cc1ccc(NC(=O)CSc2nnnn2-c2ccc(C(C)(C)C)cc2Cl)c(Cl)c1)OCC(=O)Nc1ccc(O)cc1` [Compound 4024] belongs 7.46.
Same read-out and setting: in the case of `CN(C)c1ccc(CNC(=O)C(C)(C)C#Cc2ccc(NC(=O)CSc3nnnn3-c3ccc(C4CC4)cc3Cl)c(Cl)c2)cc1` [Compound 4153] it was 6.90; in that of `CC(C)(C#Cc1ccc(NC(=O)CSc2nnnn2-c2ccc(C3CC3)cc2Cl)c(Cl)c1)NC(=O)CC(=O)O` [Compound 4232], 8.00; in that of `CC(C)(C)c1ccc(-n2nnnc2SCC(=O)Nc2ccc(C#Cc3ccccc3)cc2Cl)c(Cl)c1` [Compound 4002], 6.57.
As to `CC(C)(C#Cc1ccc(NC(=O)CSc2nnnn2-c2ccc(C3CC3)cc2Cl)c(Cl)c1F)C(=O)O` [Compound 4100], the pIC50 was 7.74.
The same measure, in the same setting: in the case of `CC(C)(C#Cc1ccc(NC(=O)CSc2nnnn2-c2cc(C3CC3)ccc2Cl)c(Cl)c1)NC(=O)c1cc[n+]([O-])cc1` [Compound 4208] it was 8.16; in that of `CC(C)(C#Cc1ccc(NC(=O)CSc2nnnn2-c2cc(C(F)(F)F)cc(C3CC3)c2Cl)c(Cl)c1)OCCN1CCNCC1` [Compound 4235], 6.14.
Still for that read-out and setting: in the case of `Cc1cc(C#CC(C)(C)NC(=O)c2cc[n+]([O-])cc2)ccc1NC(=O)CSc1nnnn1-c1ccc(C2CC2)cc1Cl` [Compound 4180] it was 7.15.
The same measure, in the same setting: to `CC(C)(C)c1ccc(-n2nnnc2SCC(=O)Nc2ccc(C#CC3CC3)cc2Cl)c(Cl)c1` [Compound 4032] belongs 7.41.
`CC(C)(C#Cc1ccc(NC(=O)CSc2nnnn2-c2cc(C3CC3)ccc2Cl)c(Cl)c1)C(=O)O` [Compound 4174] showed a pIC50 of 7.47.
The same measure, in the same setting: to `CC(C)(O)C#Cc1ccc(NC(=O)CSc2nnnn2-c2cc(F)cc(C(F)(F)F)c2Cl)c(Cl)c1` [Compound 4029] belongs 6.67; to `CC(C)(C#Cc1ccc(NC(=O)CSc2nnnn2-c2cc(C3CC3)cc(C(F)(F)F)c2Cl)c(Cl)c1F)NC(=O)c1ccc[n+]([O-])c1` [Compound 4248], 7.52.
The same measure, in the same setting: to `CC(C)(C)c1ccc(-n2nnnc2SCC(=O)Nc2ccc(C#CCCC(=O)O)cc2Cl)c(Cl)c1` [Compound 4102] belongs 7.61; to `CC(C)(C#Cc1ccc(NC(=O)CSc2nnnn2-c2ccc(C3CC3)cc2Cl)c(Cl)c1F)OCCOc1ccc[n+]([O-])c1` [Compound 4215], 7.25.
Still for that read-out and setting: in the case of `CC(C)(C#Cc1ccc(NC(=O)CSc2nnnn2-c2ccc(C(C)(C)C)cc2Cl)c(Cl)c1)OCC(=O)Nc1cccc(C(=O)O)c1` [Compound 4025] it was 7.36.
In turn, `CC(C)(C)c1ccc(-n2nnnc2SCC(=O)Nc2ccc(C#CC3(O)CCC3)cc2Cl)c(Cl)c1` [Compound 4062] showed a pIC50 of 7.28.
On the same count and under the same terms, to `CC(C)(C#Cc1ccc(NC(=O)CSc2nnnn2-c2ccc(C(C)(C)C)cc2Cl)c(Cl)c1F)C(=O)O` [Compound 4122] belongs 7.81; to `CC(C)(C#Cc1ccc(NC(=O)CSc2nnnn2-c2ccc(C(C)(C)C)cc2Cl)c(Cl)c1)OCC(=O)N1CCOCC1` [Compound 4039], 7.40; to `CC(C)(C#Cc1ccc(NC(=O)CSc2nnnn2-c2ccc(C(C)(C)C)cc2Cl)c(Cl)c1)OCC(=O)NCC(=O)O` [Compound 4052], 7.52.

The same assay, now with this note: IC50 mut, mutant reverse transcriptase, enzymatic assay of Example 24.
The molecule `CN(C)S(=O)(=O)c1ccc(NC(=O)CSc2nnnn2-c2ccc(C(C)(C)C)cc2Cl)c(Cl)c1` [Compound 3025] gave a pIC50 of 6.66.
For `CSCCC(NC(=O)c1ccc(NC(=O)CSc2nnnn2-c2ccc(C(C)(C)C)cc2Cl)c(Cl)c1)C(=O)O` (stereo not shown) [Compound 6025], the pIC50 was 7.39.
The same measure, in the same setting: in the case of `Cc1nnc(SCC(=O)Nc2ccc(C#CC(C)(C)COC(N)=O)cc2Cl)n1-c1ccc(C2CC2)cc1Cl` [Compound 1011] it was 7.68; in that of `COC(=O)NS(=O)(=O)c1ccc(NC(=O)CSc2nnnn2-c2ccc(C3CC3)cc2Cl)c(Cl)c1` [Compound 3040], 6.63; in that of `CC(C)(C)c1ccc(-n2nnnc2SCC(=O)Nc2ccc(C(=O)Nc3ccc(/C=C/C(=O)O)cc3)cc2Cl)c(Cl)c1` [Compound 6022], 7.85.
`CC(C)(C)c1ccc(-n2nnnc2SCC(=O)Nc2ccc(C(=O)NCCc3ccc(O)cc3)cc2Cl)c(Cl)c1` [Compound 6017] had a pIC50 of 7.48.
The same measure, in the same setting: in the case of `CC(C)(C)c1ccc(-n2nnnc2SCC(=O)Nc2ccc(C(=O)Nc3cccc(C(=O)O)c3)cc2Cl)c(Cl)c1` [Compound 6021] it was 7.24; in that of `O=C(COc1ccc(NC(=O)CSc2nnnn2-c2ccc(C3CC3)cc2Cl)c(Cl)c1)NCCc1ccc[n+]([O-])c1` [Compound 5039], 6.32.
Still for that read-out and setting: to `O=C(O)Cc1ccc(-c2ccc(NC(=O)CSc3nnnn3-c3ccc(C(F)(F)F)cc3Cl)c(Cl)c2)cc1` [Compound 2023] belongs 6.77.
On the same count and under the same terms, in the case of `COC(=O)c1ccc(-c2ccc(NC(=O)CSc3nnnn3-c3ccc(C(C)(C)C)cc3Cl)c(Cl)c2)cc1` [Compound 2008] it was 7.41; in that of `O=C(CSc1nnnn1-c1cc(C(F)(F)F)ccc1Cl)Nc1ccc(-c2ccc(OCCN3CCCCC3)cc2)cc1Cl` [Compound 2049], 7.27.
`CC(C)(C)c1ccc(-n2nnnc2SCC(=O)Nc2ccc(OCC(=O)NC3CCOCC3)cc2Cl)c(Cl)c1` [Compound 5030] had a pIC50 of 6.94.
Still for that read-out and setting: to `Cc1ccc(-n2nnnc2SCC(=O)Nc2ccc(-c3coc(C)n3)cc2Cl)c(Cl)c1` [Compound 3017] belongs 6.51.
Still for that read-out and setting: in the case of `Cc1ccc(-n2nccc2SCC(=O)Nc2ccc(-c3ccc(CC(=O)O)cc3)cc2Cl)c(Cl)c1` [Compound 1004] it was 6.38; in that of `Cc1cc(OCC(=O)O)ccc1-c1ccc(NC(=O)CSc2nnnn2-c2ccc(C(C)(C)C)cc2Cl)c(Cl)c1` [Compound 3011], 6.47; in that of `CC(C)(C)c1ccc(-n2nnnc2SCC(=O)Nc2ccc(OCC(=O)NC3CCN(Cc4ccccc4)CC3)cc2Cl)c(Cl)c1` [Compound 5008], 6.06.
Molecule `O=C(CSc1nnnn1-c1ccc(C2CC2)cc1Cl)Nc1ccc(OCC(=O)N2CCC(C(=O)O)CC2)cc1Cl` [Compound 5032] had a negative-log IC50 (pIC50) of 7.29.
The same measure, in the same setting: to `Cc1ccc(-n2nnnc2SCC(=O)Nc2ccc(-c3ccc(CC(N)=O)cc3)cc2Cl)c(Cl)c1` [Compound 2012] belongs 7.82; to `Cc1ccc(-n2nnnc2SCC(=O)Nc2ccc(/C=C/C(=O)O)cc2Cl)c(Cl)c1` [Compound 3006], 6.58.
The same measure, in the same setting: in the case of `CC(C)(C)c1ccc(-n2nnnc2SCC(=O)Nc2ccc(C(=O)NC3CCN(Cc4ccccc4)CC3)cc2Cl)c(Cl)c1` [Compound 6009] it was 7.14; in that of `CC(C)(C)c1ccc(-n2nnnc2SCC(=O)Nc2ccc(OCC(=O)N3CCC(C(=O)O)CC3)cc2Cl)c(Cl)c1` [Compound 5028], 7.41; in that of `CN1CCN(C(=O)c2ccc(NC(=O)CSc3nnnn3-c3ccc(C(C)(C)C)cc3Cl)c(Cl)c2)CC1` [Compound 6004], 6.40.
`CC(C)(C)c1ccc(-n2nnnc2SCC(=O)Nc2ccc(C(=O)Nc3ccc(N4CCOCC4)cc3)cc2Cl)c(Cl)c1` [Compound 6006] had a pIC50 of 7.34.
Still for that read-out and setting: to `CC(C)(C)c1cc(Cl)c(-n2nnnc2SCC(=O)Nc2ccc(-c3ccc(CC(=O)O)cc3)cc2Cl)c(Cl)c1` [Compound 2020] belongs 7.74; to `CC(C)(C)c1ccc(-n2nnnc2SCC(=O)Nc2ccc(OCC(=O)NCc3ccco3)cc2Cl)c(Cl)c1` [Compound 5002], 6.86.
The same measure, in the same setting: to `CC(C)(C)c1ccc(-n2nnnc2SCC(=O)Nc2ccc(C(=O)NCCC(=O)O)cc2Cl)c(Cl)c1` [Compound 6024] belongs 7.39; to `CC(C)(C)c1ccc(-n2nnnc2SCC(=O)Nc2ccc(-c3ccc(OCCN4CCCC4)cc3)cc2Cl)c(Cl)c1` [Compound 2029], 7.72.
Turning to `CC(C)(C)c1ccc(-n2nnnc2SCC(=O)Nc2ccc(OCC(=O)NN3CCOCC3)cc2Cl)c(Cl)c1` [Compound 5006], the pIC50 is 6.43.

Source of the values: US7517998B2, “Non nucleoside reverse transcriptase inhibitors” (priority 2004, dated 2009).
